Square brackets hold non-standard residues; d marks the D form. Ends that are not written are not given here.
Legend:
[1] = tested on: Kupffer cells (CD-14 positive cells) of the liver; assay: Liver cell localization of FITC-D-TAT after i.v. injection; type: in vivo, mouse; conditions: 0.1 mg/kg i.v.
Procedure: FIG. 5: (A): Primary cultured macrophages were incubated with XG-102 (SEQ ID NO: 233) and extensively washed. […] (B): Mice were injected i.v. with 0.1 mg/kg FITC-D-TAT (SEQ ID NO: 4 plus FITC) and were sacrificed 24 hours later with PAF perfusion through the heart. Slices were obtained after cryoprotection using cryostat.
Mice were injected i.v. with 0.1 mg/kg of FITC-D-TAT (SEQ ID NO: 4) and were sacrificed by perfusion 24 h later. Liver was removed, cryoprotected and cut into slices with a cryostat. D-TAT was directly visualized via FITC fluorescence and cell nuclei were labeled with Hoechst dye. Hepatocytes are big cells (89% of liver cells) that display a large nucleus, whereas Kupffer cells (resident macrophages of the liver) represent approximately 10% of the cells and are small and thin, elongated cells with small nucleus.

[2] = tested on: liver and lymph nodes; assay: FITC-XG-102 and FITC-D-TAT localization in liver and lymph nodes; type: in vivo, Sprague Dawley rat; conditions: 1 mg/kg i.v., 6 h post-injection
Source text: FIG. 22A and FIG. 22B: 22A: FITC-XG-102 (SEQ ID NO: 233) localization in the liver. Three cellular fields of FITC-XG-102-labelled cells isolated from liver. From left to right, FITC-labelled XG-102, corresponding DAPI nuclear stain and merge of both images. […] Typicall Kupfer cell shape and nucleus can be differentiated from hepatocytes by their shape. Small and triangle in Kupfer cells in contrast to big exagonal, well organized hepatocytes. Obj 63; bar, 20 μm. 22B: FITC-D-TAT (SEQ ID NO: 4) localization in the liver. Two cellular fields of FITC-D-TAT-labelled cells isolated from liver. From left to right, FITC-labelled XG-102, corresponding DAPI nuclear stain and merge of both images. […] Typicall Kupfer cell shape and nucleus can be differentiated from hepatocytes by their shape. Small and triangle in Kupfer cells in contrast to big exagonal, well organized hepatocytes. Obj 63; bar, 20 μm.
(§1) FIG. 23A and FIG. 23B: 23A: FITC-XG-102 (SEQ ID NO: 233) localization in lymph nodes. Cellular field of FITC-XG-102-labelled cells isolated from lymph nodes. Upper panels from left to right: the composite image is organized with one cellular field stained with FITC-XG-102 (left), Dapi for nuclear stain (middle) and the corresponding merged image (right). In the lower panels, a zoomed cell cluster of each image is illustrated. […] The absence of FITC staining in the lymphoid follicles allows distinguishing from the medullary corde and cortex area. Medullary zone seems to have incorporated the FITC-XG-102, composed in majority by macrophages. Obj 10; bar, 50 μm.
as §1, with “23B:” for “FIG. 23A and FIG. 23B:”, “FITC-D-TAT” for “23A: FITC-XG-102”, “4)” for “233)”, “FITC-D-TAT-labelled” for “FITC-XG-102-labelled”, “FITC-D-TAT” for “FITC-XG-102”, “FITC-D-TAT,” for “FITC-XG-102,”
Female Sprague Dawley rat was injected i.v. in the tail with either 1 mg/kg of FITC-XG102 (SEQ ID NO:233) or 1 mg/kg FITC-D-TAT (SEQ ID NO:4). Rats were sacrified 6 h post-injection using a lethal dose of sodium pentobarbital (150 mg/kg i.p.). For histological analysis and during narcosis, rats were perfused through the heart with 4% paraformaldehyde (PFA) in PBS. Organs (liver and lymph nodes) were cryoprotected in sucrose (30% in PBS), frozen using liquid isopentane and kept for further cryostat sectioning. Sections of 14 μm were incubated for 5 min in PBS before Hoechst staining for 2 min at RT (1 μg/ml). […]

[3] = tested on: HepG2 hepatocarcinoma, HCT-116 tumoral colon; assay: Uptake of FITC-labeled TAT derived transporter constructs in HepG2 and HCT-116; type: cell-based, human; conditions: 10 μM, 24 h
[4] = tested on: Lymphocytes B (CD19); assay: Flow cytometry of FITC-transporter content in primary human white blood cells: lymphocytes B; type: cell-based; conditions: 1 uM, 30 min
Source text: (§2) Primary human white blood cells (WBC) were obtained from whole blood after red blood cell lysis. […] Cells containing D-TAT-FITC and r3-L-TAT-FITC were finally analysed by flow cytometry to measure their respective transporter content.

[5] = tested on: Monocytes (CD14); assay: Flow cytometry of FITC-transporter content in primary human white blood cells: monocytes; type: cell-based; conditions: 1 uM, 30 min
Source text: as §2

[6] = tested on: U937 cells; assay: Intracellular concentration of transporter constructs subsequent to uptake into U937 cells; type: cell-based; conditions: U937 cells, 10 μM construct
Procedure: 9. Determination of Intracellular Concentration of Specific Transporter Constructs Subsequent to Uptake (Internalization) of these Peptides into U937 Cells • According to a further experiment, the concentration of specific transporter constructs subsequent to uptake (internalization) of these peptides into U937 cells were determined.

[7] = tested on: Lymphocytes T (CD3); assay: Flow cytometry of FITC-transporter content in primary human white blood cells: lymphocytes T; type: cell-based; conditions: 1 uM, 30 min
Source text: as §2

[8] = tested on: dissociated cortical primary neurons; assay: Confocal microscopy of FITC-labeled TAT derivative transporters in cortical primary neurons; type: cell-based, rat; conditions: 500 nM, 24 hours
Procedure: 8.4 Internalization Experiments and Analysis • The time dependant internalization (uptake) of FITC-labeled TAT derived transporter constructs into cells of the HL-60 cell line was carried out with materials and methods as described above. • Briefly, HL-60 cells were incubated 30 min, 1, 6 or 24 hours with 10 μM of the TAT-derivative transporters. The cells were then washed twice with an acidic buffer (0.2 M Glycin, 0.15 M NaCl, pH 3.0) and twice with PBS. Cells were broken by the addition of RIPA lysis buffer. The relative amount of internalized peptide was then determined by reading the fluorescence intensity (Fusion Alpha plate reader; PerkinElmer) of each extract followed by background substraction and protein content normalization. […] The dissociated cortical primary neurons from P2 Sprague Dawley rats were cultured 12 days in neurobasal medium before exposure 24 hours to 500 nM of the FITC-labeled • TAT derivative transporters. The cells were washed five times with PBS on ice and then mounted in fluorsave mounting medium without prior fixation. Acquisitions were performed on LSM510 metaconfocal microscope (Zeiss). Images were processed with LSM510 software and mounted using Adobe photoshop. Visualization by confocal microscopy of labeling with 500 nM FITC-transporters (A: green). Nuclei were stained by Hoechst (B: blue).

[9] = tested on: Neutrophils (CD15); assay: Flow cytometry of FITC-transporter content in primary human white blood cells: neutrophils; type: cell-based; conditions: 1 uM, 30 min
Source text: as §2

[10] = tested on: U937 lymphoma cells; assay: Uptake (internalization) of FITC-labeled TAT derived transporter constructs in U937 cells, fluorescence plate reader; type: cell-based; conditions: 10 μM, U937, Lymphoma, 24 h
Procedure: Cells were plated into poly-DL-lysine coated dishes at a concentration of 1×10^6 cells/ml. Plates were then incubated for 24 h at 37° C., 5% CO2, and 100% relative humidity prior to the addition of a known concentration of peptide. After peptide addition, the cells were incubated 30 min, 1, 6 or 24 h at 37° C., 5% CO2, and 100% relative humidity. Cells were then washed twice with an acidic buffer (Glycin 0.2 M, NaCl 0.15 M, pH 3.0) in order to remove the cell-surface adsorbed peptide (see Kameyama et al., (2007), Biopolymers, 88, 98-107). […] The cell wash using an acidic buffer was thus employed to remove the cell-surface adsorbed peptides. […] Cells were broken by the addition of the RIPA lysis buffer. The relative amount of internalized peptide was then determined by fluorescence after background substraction and protein content normalization. • The steps are thus: 1. […] Analysis of peptide internalization with a fluorescence plate reader • f) Cell Culture and Peptide Treatment • (1) The 6 well culture plates are coated with 3 ml of Poly-D-Lys (Sigma P9011; 25 μg/ml in PBS), the 24 well plates with 600 μl and the 96 well plates with 125 μl and incubated for 4 h at 37° C., CO2 5% and 100% relative humidity. • (2) After 4 hours the dishes were washed twice with 3.5 ml PBS, 700 μl or 150 μl PBS for the 6, 24 or 96 well plates, respectively. • (3) The cells were plated into the dishes in 2.4 ml medium (RPMI) at plating densities of 1′000′000 cells/ml for suspension cells. After inoculation, the plates were incubated at 37° C., 5% CO2 and 100% relative humidity for 24 hours prior to the addition of the peptide. Adherent cells should be at a density of 90-95% the day of treatment and were plated in DMEM :
• (4) The cells were treated with the desired concentration of FITC labeled peptide (stock solution at a concentration of 10 mM in H2O). • (5) Following peptide addition, the cells were incubated 0 to 24 hours (e.g. 30 min, 1, 6 or 24 hours) at 37° C., CO2 5% and 100% relative humidity. • Acidic Wash and Cellular Extracts: • (6) The extracts were cooled on ice. • Suspension cells (or cells, which don attach well to the dish): • Transfer the cells in ? […] To recover the maximum of cells, wash the dish with 1 ml of PBS. • Harvest the cells 2 min at 2400 rpm max. • Suspend the cells in 1 ml cold PBS. • Transfer the cells into a coated “Eppendorf tube” (coated with 1 ml of poly D-Lys for 4 hours and washed twice with 1 ml PBS). • Wash three times with 1 ml of cold acidic wash buffer and centrifuge 2 min at 2400 rpm max. Beware of the spreading of the cells in the “eppendorf”. • Wash twice with 1 ml cold PBS to neutralize. • Add 50 μl of lysis RIPA Buffer. • Incubate 30 min-1 h on ice with agitation. • Adherent Cells: • Wash three times with 3 ml, 1 ml or 200 μl (for 6, 24 or 96 well plates, respectively) of cold acidic wash buffer. Beware of the cells who detach from the dish. • Wash twice with 1 ml cold PBS (for 6, 24 or 96 well plates, respectively) to neutralize. • Add 50 μl of lysis RIPA buffer. • Incubate 30 min-1 h on ice with agitation. • Scrap the cells with a cold scrapper. The 24 and 96 well plates were directly centrifuged at 4000 rpm at 4° for 15 min to remove the cellular debris. Then the supernatants (100 or 50 ml respectively for the 24 or 96 well plates) were directly transferred in a dark 96 well plated.

[11] = tested on: HL-60 cell line (Leukemia); assay: Time dependant internalization of FITC-labeled TAT derived transporter constructs into HL-60 cells; type: cell-based; conditions: 10 μM; 30 min, 1, 6 or 24 hours
Procedure: FIG. 3: depicts the results of the time dependant internalization (uptake) of FITC-labeled TAT derived transporter constructs into cells of the HL-60 cell line. […] HL-60 cells were incubated 30 min, 1, 6 or 24 hours with […] of the TAT-derivative transporters. The cells were then washed twice with an acidic buffer (0.2 M Glycin, 0.15 M NaCl, pH 3.0) and twice with PBS. Cells were broken by the addition of RIPA lysis buffer. The relative amount of internalized peptide was then determined by reading the fluorescence intensity (Fusion Alpha plate reader; PerkinElmer) of each extract followed by background substraction and protein content normalization. […]

[12] = tested on: TC-3 cells; assay: Inhibition of IL-1 induced pancreatic beta-cell death; type: cell-based; conditions: 1 μM single addition, IL-1 every two days, 15 days
Procedure: Inhibition of IL-1 induced pancreatic beta-cell death by the D-TAT-IB1(s) peptide was analyzed. TC-3 cells were incubated for 30 minutes with one single addition of the indicated peptides (1, μM), then IL-1 (10 ng/ml) was added.
Apoptotic cells were then counted after two days of incubation with IL-1 by use of Propidium Iodide and Hoechst 33342 nuclear staining. A minimum of 1,000 cells were counted for each experiment.
Long term inhibition of IL-1P induced cell-death by the D-TAT-IB1 peptide was also analyzed. TC-3 cells were incubated for 30 minutes with one single addition of the indicated peptides (1 μM), then IL-1 (10 ng/ml) was added, followed by addition of the cytokine every two days. Apoptotic cells were then counted after 15 days of incubation with IL-1 by use of propidium iodide and Hoechst 33342 nuclear staining. […] A minimum of 1.000 cells were counted for each experiment.

N=C(N)NCCC[C@@H](NC(=O)[C@@H](CCCCN)NC(=O)[C@@H](CCCCN)NC(=O)[C@@H](CCCNC(=N)N)NC(=O)[C@@H](CCCNC(=N)N)NC(=O)[C@@H](CCC(N)=O)NC(=O)[C@@H](CCCNC(=N)N)NC(=O)[C@@H](CCCNC(=N)N)NC(=O)[C@@H](CCCNC(=N)N)NC(=O)CCNC(=S)Nc1ccc2c(c1)C(=O)OC21c2ccc(O)cc2Oc2cc(O)ccc21)C(N)=O [FITC-D-TAT, FITC-βA-rrrqrrkkr]
cell type of accumulation in liver ([1]; 24 h): accumulates predominantly in Kupffer cells
colocalization with CD-14 positive cells in liver ([1]; 24 hours): colocalization between FITC-D-TAT labelled-cells and CD-14 positive cells
localization in lymph nodes [2]: decorates subcapsular sinus macrophages and constitutive migrating alveolar macrophages
localization in the liver [2]: efficiently decorates Kupfer cells in contrast to hepatocytes which only show a background staining level

rrrRRRrrr [r6R3]
uptake (internalization) [3]: most efficient

rKKRrQRRr ([dR]KKR[dR]QRR[dR]) [r3-L-TAT]
binding to cell population [4]: less efficiently to lymphocyte B cells
binding to cell population [5]: binds to monocytes, neutrophils and lymphocyte T cells
intracellular concentration of transporter construct subsequent to uptake ([6]; 2 h): 2.34
intracellular concentration of transporter construct subsequent to uptake ([6]; 4 h): 3.16
intracellular concentration of transporter construct subsequent to uptake ([6]; 6 h): 3.56
intracellular concentration of transporter construct subsequent to uptake ([6]; 24 h): 11.2
binding to cell population [7]: binds to monocytes, neutrophils and lymphocyte T cells
internalization seen by confocal microscopy [8]: internalized into the cytoplasm of the non stressed neurons
binding to cell population [9]: binds to monocytes, neutrophils and lymphocyte T cells
uptake (internalization) [10]: most efficient
time dependant internalization (uptake) [11]: as effective as the D-TAT transporter construct

L-TAT-IB1(s): SEQ ID NO: 234: L-IB1(s) linked to 10 amino acid L-TAT carrier via two proline residues (GRKKRRQRRRPPRPKRPTTLNLFPQVPRSQD; Description of sequence L-TAT-IB1 (s))
long term protection against IL-1 induced cell-death [12]: but not L-TAT-IB1(s), was able to confer long term (15 day) protection

Reference: US10023615B2, “Efficient transport into white blood cells” (priority 2008, dated 2018)
